These results are taken from US4514408A, “N-substituted nicotinamide 1-oxide as histamine H2 receptor blockers” (Sanofi, priority 1982, dated 1985).

In assay [1] the target is T1, gastric histamine H2 receptors (Rattus norvegicus, UniProt P25102).
T1 construct: the gastric secretion is measured by perfusion of a physiological solution at a constant speed in the stomach of the animal; from tissue; host or cells: stomach of the living atropinised rat (in vivo, endogenous receptor)
Description: antisecretory activity: antagonism of gastric hypersecretion induced by histamine in the atropinised rat (Ghosh and Schild modified according to Black). It counts as in vivo. As to conditions: for ED50: intravenous, single administration, histamine i.v. infusion 15 mcmol/kg/hour, atropinised rat, read-out: ID50 (dose which inhibits by 50% the gastric hypersecretion induced by histamine). As for the experimental part: According to this test, a gastric acid hypersecretion is induced by intravenous infusion of a sub-maximal dose of histamine equivalent to 15 mcmol/kg/hour and the gastric secretion is measured by perfusion of a physiological solution at a constant speed in the stomach of the animal.
Cimetidine and ranitidine, which represent standard compounds, as well as:
the compound of formula [drawing 5] as oxalate, and […]

The test system of the next assay is histamine H2 receptors. Particulars: i.v.; cited from earlier work.
The mark [2] stands for this setting: from ID50, i.v., cimetidine = 1.

T1 sequence (P25102 whole entry, the tested form may be a part): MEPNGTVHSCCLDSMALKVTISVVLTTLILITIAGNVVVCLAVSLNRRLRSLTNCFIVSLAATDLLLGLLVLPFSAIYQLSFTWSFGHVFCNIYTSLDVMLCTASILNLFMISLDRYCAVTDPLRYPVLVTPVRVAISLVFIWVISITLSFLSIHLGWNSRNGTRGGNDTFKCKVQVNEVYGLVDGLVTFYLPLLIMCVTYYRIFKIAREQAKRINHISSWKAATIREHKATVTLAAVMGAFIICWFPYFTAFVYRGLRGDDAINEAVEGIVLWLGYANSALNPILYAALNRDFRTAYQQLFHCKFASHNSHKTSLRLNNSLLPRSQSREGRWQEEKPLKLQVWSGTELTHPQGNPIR

As for `O=C(NCCCOc1cccc(CN2CCCC2)c1)c1ccc[n+]([O-])c1` [CM 57891, N-[3-(3-pyrrolidinomethylphenoxy)propyl]-3-pyridinecarboxamide 1-oxide], the “Relative potency (cimetidine = 1)” value in assay [1] (setting [2]) turned out to be 2.43. In addition, the ED50 in assay [1] turned out to be 0.39 µmol/kg.

As to `O=CNCCCOc1cccc(CN2CCCC2)c1` [Compound IV, reference compound], the “Relative potency (cimetidine = 1)” value in assay [1] (setting [2]) stood at 0.47. In addition, the ED50 in assay [1] is 2.01 µmol/kg; with histamine H2 receptors, 0.84 mg/kg.

In the case of `O=C(NCCCOc1cccc(CN2CCCC2)c1)c1cccnc1` [Compound V, reference compound], in assay [1] (setting [2]), the “Relative potency (cimetidine = 1)” value is on record as 0.43. Besides, the ED50 in assay [1] is 2.22 µmol/kg; in the assay on histamine H2 receptors, 1.25 mg/kg.

In the case of `CNC(=C[N+](=O)[O-])NCCSCc1ccc(CN(C)C)o1` [Ranitidine, N-[2-[[5-[(dimethylamino)methyl]furfuryl]thio]ethyl]-N'-methyl-2-nitro-1,1-ethenediamine, reference compound], the “Relative potency (cimetidine = 1)” value in assay [1] (rat, in vivo, iv) stood at 3.80.

As to `O=C(NCCCOc1cccc(CN2CCCCC2)c1)c1ccc[n+]([O-])c1` [SR 58017A, N-[3-(3-piperidinomethylphenoxy)propyl]-3-pyridinecarboxamide 1-oxide sesquioxalate], the “Relative potency (cimetidine = 1)” value in assay [1] (setting [2]) came out at 8.64. Moreover, in assay [1], the ED50 amounted to 0.11 µmol/kg.

For the compound `CC1CCN(Cc2cccc(OCCCNC(=O)c3ccc[n+]([O-])c3)c2)CC1` [SR 58037, N-[3-[3-(4-methylpiperidinomethyl)phenoxy]propyl]-3-pyridinecarboxamide 1-oxide], the “Relative potency (cimetidine = 1)” value in assay [1] (setting [2]) is 7.31. For the same compound, the ED50 in assay [1] was 0.13 µmol/kg.

For the compound `CC1CCCN(Cc2cccc(OCCCNC(=O)c3ccc[n+]([O-])c3)c2)C1` (centres unmarked) [SR 58042, N-[3-[3-(3-methylpiperidinomethyl)phenoxy]propyl]-3-pyridinecarboxamide1-oxide], in assay [1] (setting [2]), the “Relative potency (cimetidine = 1)” value is 6.78. Moreover, the ED50 in assay [1] came out at 0.14 µmol/kg.

In the case of `O=C(NCCCOc1cccc(CN2CCCCCC2)c1)c1ccc[n+]([O-])c1` [SR 58052, N-[3-(3-hexamethyleneiminomethylphenoxy)propyl]-3-pyridinecarboxamide 1-oxide], the “Relative potency (cimetidine = 1)” value in assay [1] (setting [2]) is 3.80. In addition, in assay [1], the ED50 turned out to be 0.25 µmol/kg.

With `CCCCN(CCCC)Cc1cccc(OCCCNC(=O)c2ccc[n+]([O-])c2)c1` [SR 58062, N-[3-(3-di-n-butylaminomethylphenoxy)propyl]-3-pyridinecarboxamide 1-oxide], the “Relative potency (cimetidine = 1)” value in assay [1] (setting [2]) came to 1.19. Moreover, in assay [1], the ED50 is 0.8 µmol/kg.

Regarding `O=C(NCCCOc1cc(CN2CCCCC2)ccn1)c1ccc[n+]([O-])c1` [SR 58065, N-[3-(4-piperidinomethylpyrid-2-yloxy)propyl]3-pyridinecarboxamide 1-oxide], the “Relative potency (cimetidine = 1)” value in assay [1] (setting [2]) was 1.48. In addition, the ED50 in assay [1] stood at 0.64 µmol/kg.

In the case of `O=C(NCCCOc1cccc(CN2CCC(O)CC2)c1)c1ccc[n+]([O-])c1` [SR 58067, N-[3-[3-(4-hydroxypiperidinomethyl)phenoxy]propyl]-3-pyridinecarboxamide 1-oxide], the “Relative potency (cimetidine = 1)” value in assay [1] (setting [2]) is 1.34. Further, the ED50 in assay [1] came out at 0.71 µmol/kg.
